Experiments:
[1] = tested on: male subjects; test: Subjective stress level reports under a lecture stressor, Example 1; format: in vivo, human; details: scale 0-10, FIG. 1
Experimental: For experiments 0.083M of Hexadecanal (HEX) dissolved in propylene glycol was used. Heating it for a few minutes eases the process (37° C. is sufficient). The mixture was aliquoted into daily portions, such that we thawed a daily serving prior to experiments. Participants were exposed to 100 ul of 0.083M HEX in 10 consecutive sniffs from a jar, and then taped a band aid with 30 ul on the upper lip. The band aid stayed to assure exposure throughout the experiment. Since propylene glycol has an odor, we used a masking odor.
• 30 male subjects, 15 using Olfactory Blue (OB—Hexadecanal) and 15 with placebo. […]
• Subjects—men only [mean age: 24.97 (SD=1.92)]. • An isolated office space (to avoid subject distraction) is prepared with a table and chair. • The computer, Modify standalone and the video recording are positioned and prepared. […] End of experiment • Experimenter debriefs subject—asks for general comments and feeling • Subjective stress level • End of test Measurements The following physiological measurements are recorded: 1. […] The following psychological/subjective measurements are recorded: 2. Memory test—the ability to remember a series of words seen one after the other and after conducting several simple mathematical tasks; scored by counting number of words correctly remembered. […] Subjective stress level—the stress level the subject feels at that moment; recorded on the computer. […]

[2] = tested on: male subjects; test: Stroop test (attention, cognitive performance), Example 1; format: in vivo, human; details: FIG. 2
Experimental: (§1) • 30 male subjects, 15 using Olfactory Blue (OB—Hexadecanal) and 15 with placebo. […] Equipment • Computer/laptop with test script and cognitive tests • HR wrist monitor and Central unit • Video camera • 2×50 ml identical bottles—one with OB (solvent+Hexadecanal) and one only with dipropylene glycol (DPG) Goals and KPIs.
• Subjects—men only [mean age: 24.97 (SD=1.92)]. • An isolated office space (to avoid subject distraction) is prepared with a table and chair. • The computer, Modify standalone and the video recording are positioned and prepared. Test Running • Subject is introduced and asked to take place in front of computer • Experimenter briefs the subject on the test procedure in general • Subject fills in a consent form (including GDPR consent) and signs the receipt for the money (see form in annex) • Subject fills in personal data on the computer • Experimenter presents the scent bottle (OB or Placebo) given to them by an assistant (who records which bottle has been given) to the subject to smell five sniffs within one minute (2% in the bottle). • Subject is asked about their subjective stress level on a scale between 0 (no stress at all) to 10 (extreme stress)—questionnaire on the computer • Experimenter completes the briefing and introduce 3 assignments to the participants: a memory task, a Stroop task and the stress manipulation—subject will have to give a 5 min lecture to an audience on one of three given topics—stressor. • Subject starts the experiment by following instructions on the computer: 1. […] End of experiment • Experimenter debriefs subject—asks for general comments and feeling • Subjective stress level • End of test Measurements The following physiological measurements are recorded: 1. […] The following psychological/subjective measurements are recorded: 2. Memory test—the ability to remember a series of words seen one after the other and after conducting several simple mathematical tasks; scored by counting number of words correctly remembered. […] Subjective stress level—the stress level the subject feels at that moment; recorded on the computer.

[3] = tested on: male subjects; test: Memory test (free recall), Example 1; format: in vivo, human; details: FIG. 3
Experimental: as §1
• Subjects—men only [mean age: 24.97 (SD=1.92)]. • An isolated office space (to avoid subject distraction) is prepared with a table and chair. • The computer, Modify standalone and the video recording are positioned and prepared. […] End of experiment • Experimenter debriefs subject—asks for general comments and feeling • Subjective stress level • End of test Measurements The following physiological measurements are recorded: 1. […] The following psychological/subjective measurements are recorded: 2. Memory test—the ability to remember a series of words seen one after the other and after conducting several simple mathematical tasks; scored by counting number of words correctly remembered. […] Subjective stress level—the stress level the subject feels at that moment; recorded on the computer.

[4] = tested on: men and women participants; test: Subjective stress level reports, men and women, Example 2; format: in vivo, human; details: two-way ANOVA, gender and fragrance condition; F(1,56)=5.1, p=0.03; no interaction; HEX vs PLACEBO; FIG. 4
Experimental: (§2) Sixty-four participants (35 women) with an average age of 27.34 (SD 4.65), half participated in the HEX group and the other half in the PLACEBO group. The study was conducted in Ra'anana, Israel in a rented office using a laptop computer.
(§3) Participants came in separately into the Ra'anana office, a research assistant (RA) welcomed them. After a short brief, participants were introduced with a bottle of liquid and were required to smell the bottle for 1 minute (with the instruction to breath normally). After being exposed to the smell, the RA explained about the three tasks (memory, attention, public speaking—the stressor). Participants reported their stress level before and after each assignment (7 times). Just before the last task, participants were informed that this task was canceled and then were asked to report their stress level for the last time.
The first stress report was given pre-manipulation; therefore, it may shed light upon the general stress level of the participants. Mean score for first stress report was 3.32 (SD 1.68) for men and 2.59 (SD 1.76) for women.
A two-way ANOVA was conducted with average stress (measures 2-6) as a dependent variable and gender and fragrance condition as the independent variables. […] Main effect for fragrance was also significant, F(1,56)=5.1, p=0.03. No interaction was found (F<0.1). […]

[5] = tested on: men and women participants; test: Average heart rate (HR) along the experiment, Example 2; format: in vivo, human; details: men and women together; FIG. 5, p<0.0001
Experimental: as §2, §3

[6] = tested on: men and women participants; test: Memory test (free recall), Example 2; format: in vivo, human; details: HEX vs placebo group
Experimental: as §2, §3

[7] = tested on: men and women participants; test: Attention test (Stroop test), Example 2; format: in vivo, human; details: HEX vs placebo group
Experimental: as §2, §3

[8] = tested on: mouse OR37 receptor subtype B; details: Klein et al [15]; cited from earlier work
[9] = tested on: mouse OR37 receptor subtype C; details: Klein et al [15]; cited from earlier work
[10] = tested on: mouse OR37 receptor subtype A; details: Klein et al [15]; cited from earlier work

Q: Which “subjective stress report, difference between groups” value ([1]; stress0 (baseline) and stress4 (end, after being told there will be no lecture)) does the source give for `CCCCCCCCCCCCCCCC=O` [HEX, Hexadecanal] here?
A: Its value is “no difference”.

Q: And the “subjective stress report vs Placebo group” value ([1]; stress1, stress2, stress3 (after assignments and smelling, after memory test, after Stroop test), 15 vs 15 men, p<0.01)?
A: The value was “significantly lower degree”.

Q: And the “Stroop test number of errors, blue vs placebo” value [2]?
A: The value was “No differences”.

Q: And the “Stroop test reaction time, blue vs placebo” value [2]?
A: The value was “No differences”.

Q: What about the “cognitive performance relative to placebo” value ([2]; as evidenced by the Stroop test) of the same compound?
A: Its value is “does not affect cognitive performance”.

Q: And the “free recall assignment, difference between conditions” value [3]?
A: Its value is “no differences”.

Q: And the “average stress (measures 2-6), main effect for fragrance” value [4]?
A: Its value is “significant”.

Q: What about the “average HR vs placebo group” value [5] of the same compound?
A: Its value is “lower”.

Q: What about the “memory (free recall), difference between groups” value [6] of the same compound?
A: The value was “did not differ”.

Q: And the “attention (Stroop test), difference between groups” value [7]?
A: The value was “did not differ”.

Q: What about the “activation of OR37 subtype B” value [8] of the same compound?
A: The value was “activated”.

Q: For `CCCCCCCCCCCCCCCCC=O` [heptadecanal], which “activation of OR37 subtype C” value [9] is on record?
A: Its value is “activated”.

Q: With `CCCCCCCCCCCCCCC=O` [pentadecanal] as the compound, how does the “activation of OR37 subtype A” value [10] read?
A: The value was “activated”.

Source: patent publication US12594248B2, “Stress management in human subjects in need thereof” (YEDA RESEARCH AND DEVELOPMENT CO. LTD., priority 2020, dated 2026)
